For ten compounds, IC50 and inhibition results are on record in ChEMBL document CHEMBL1926670, “1,2-Benzothiazine 1,1-dioxide carboxylate derivatives as novel potent inhibitors of aldose reductase” (Bioorg Med Chem, 2011).

Experiment [1] concerns the target Aldo-keto reductase family 1 member A1 (Rattus norvegicus, UniProt P51635). Kind of experiment: Inhibition of Wistar rat kidney ALR1 using D-glucuronate as substrate after 10 mins by UV/VIS double spectrophotometric analysis.
The target in experiment [2] is Aldo-keto reductase family 1 member B1 (Rattus norvegicus, UniProt P07943). Kind of experiment: Inhibition of Wistar rat lens ALR2 using D,L-glyceraldehyde as substrate after 10 mins by UV/VIS double spectrophotometric analysis. The format is tissue-based, Lens of camera-type eye.
Experiment [3] addresses Aldo-keto reductase family 1 member B1 (Rattus norvegicus) (UniProt P07943). Kind of experiment: Inhibition of Wistar rat lens ALR2 using D,L-glyceraldehyde as substrate at 10 uM after 10 mins by UV/VIS double spectrophotometric analysis. The format is tissue-based. The note with it: Lens of camera-type eye.

Chain of Aldo-keto reductase family 1 member A1 (P51635 whole entry, looked up): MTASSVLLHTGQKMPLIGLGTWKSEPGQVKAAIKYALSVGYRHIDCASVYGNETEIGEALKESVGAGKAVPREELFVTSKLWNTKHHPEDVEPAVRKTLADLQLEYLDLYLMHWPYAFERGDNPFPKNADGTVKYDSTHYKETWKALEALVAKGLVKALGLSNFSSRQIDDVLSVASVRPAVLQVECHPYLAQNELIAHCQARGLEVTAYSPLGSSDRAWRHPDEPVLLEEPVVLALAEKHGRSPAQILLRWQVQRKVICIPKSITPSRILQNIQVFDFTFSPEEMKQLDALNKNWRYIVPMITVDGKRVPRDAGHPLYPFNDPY

For orientation: IC50 means the concentration that gives 50% inhibition. A low value points to inhibition by little substance. With `O=C(O)/C=C1\CN(Cc2cc(F)c(F)cc2F)S(=O)(=O)c2ccccc21` (mixture of isomers), the IC50 in experiment [1] is above 10000 nM; in experiment [2], 590 nM.
In turn, `O=C(O)/C=C1\CN(Cc2ccc(C(F)(F)F)cc2)S(=O)(=O)c2ccccc21` (mixture of isomers) came in with an IC50 in experiment [2] of 6130 nM.
With `O=C(O)/C=C1\CN(Cc2ccc(Br)cc2F)S(=O)(=O)c2ccccc21` (mixture of isomers), the IC50 in experiment [1] was above 10000 nM; in experiment [2], 110 nM.
Taken in the same sequence, the figures for `O=C(O)/C=C1\CN(Cc2cccc([N+](=O)[O-])c2)S(=O)(=O)c2ccccc21` (mixture of isomers) were above 10000 nM and 140 nM.
In experiment [2], `O=C(O)/C=C1\CN(Cc2ccccc2F)S(=O)(=O)c2ccccc21` (mixture of isomers) had an IC50 of 2130 nM.
Usually inhibition stands for the percentage by which the read-out fell short of the control. Lower therefore signals a weak effect. On to `O=C(O)/C=C1\CN(Cc2cc(C(F)(F)F)cc(C(F)(F)F)c2)S(=O)(=O)c2ccccc21` (mixture of isomers), for which, in experiment [3], the inhibition is 32%.
On to `O=C(O)CC1CN(Cc2cc(F)c(F)cc2F)S(=O)(=O)c2ccccc21` (racemic), for which the figures for the IC50 in experiment [1] and in experiment [2] were above 10000 nM and 340 nM, respectively.
`O=C(O)CC1CN(Cc2cc(C(F)(F)F)cc(C(F)(F)F)c2)S(=O)(=O)c2ccccc21` (racemic): the IC50 in experiment [2] was found to be 10400 nM.
On the same count and under the same terms, for `O=C(O)CC1CN(Cc2ccc(C(F)(F)F)cc2)S(=O)(=O)c2ccccc21` (racemic) the value was 5300 nM; for `O=C(O)CC1CN(Cc2ccccc2F)S(=O)(=O)c2ccccc21` (racemic), 1730 nM.
